Assay results taken from ChEMBL document CHEMBL1201862, “PubChem BioAssay data set” (2004).
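Cultured in 96-well plates, cells were exposed to test compound for 48 hours across five concentrations. GI50 = concentration required for 50% inhibition of growth.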 Active and inactive are the calls of the source. Rule as the data show it: active = GI50 up to about 1.1 µM and inactive = higher.

Legend:
Experiment in all cases: NCI-60 cell line screen, 48 h
XF498 = tested on: XF498
OVCAR-4 = tested on: OVCAR-4
IGROV-1 = tested on: IGROV-1
RXF 631 = tested on: RXF 631
CCRF-CEM = tested on: CCRF-CEM
CAKI-1 = tested on: CAKI-1
KM12 = tested on: KM12
LOX IMVI = tested on: LOX IMVI
ACHN = tested on: ACHN
EKVX = tested on: EKVX
M14 = tested on: M14
A498 = tested on: A498
HOP-18 = tested on: HOP-18
SNB-19 = tested on: SNB-19
A549 = tested on: A549
K562 = tested on: K562
UACC-62 = tested on: UACC-62
HOP-92 = tested on: HOP-92
OVCAR-3 = tested on: OVCAR-3
SNB-75 = tested on: SNB-75
SN12C = tested on: SN12C
MOLT-4 = tested on: MOLT-4
COLO 205 = tested on: COLO 205
SF-539 = tested on: SF-539
RXF 393 = tested on: RXF 393
NCI-H522 = tested on: NCI-H522
786-0 = tested on: 786-0
HT-29 = tested on: HT-29
HL-60 = tested on: HL-60
SK-MEL-2 = tested on: SK-MEL-2
Malme-3M = tested on: Malme-3M
M19-MEL = tested on: M19-MEL
OVCAR-5 = tested on: OVCAR-5
OVCAR-8 = tested on: OVCAR-8
KM-20L2 = tested on: KM-20L2
SW-620 = tested on: SW-620
LXFL 529 = tested on: LXFL 529
SK-OV-3 = tested on: SK-OV-3
SK-MEL-5 = tested on: SK-MEL-5
RPMI-8226 = tested on: RPMI-8226
NCI-H23 = tested on: NCI-H23
DLD-1 = tested on: DLD-1
TK-10 = tested on: TK-10
U-251 = tested on: U-251
HCC 2998 = tested on: HCC 2998
NCI-H460 = tested on: NCI-H460
DMS-273 = tested on: DMS-273
HCT-15 = tested on: HCT-15
SK-MEL-28 = tested on: SK-MEL-28
SF-268 = tested on: SF-268
UO-31 = tested on: UO-31
UACC-257 = tested on: UACC-257
SF-295 = tested on: SF-295
NCI-H226 = tested on: NCI-H226
HCT-116 = tested on: HCT-116
HOP-62 = tested on: HOP-62
SR = tested on: SR
DMS-114 = tested on: DMS-114
SNB-78 = tested on: SNB-78

O=C(O)CNS(=O)(=O)c1ccc(NC(=O)c2ccc(F)cc2)cc1
GI50 (XF498): > 100 µM (inactive) | GI50 (OVCAR-4): > 100 µM (inactive) | GI50 (IGROV-1): > 100 µM (inactive) | GI50 (RXF 631): > 100 µM (inactive) | GI50 (CCRF-CEM): > 100 µM (inactive) | GI50 (CAKI-1): > 100 µM (inactive) | GI50 (KM12): > 100 µM (inactive) | GI50 (LOX IMVI): > 100 µM (inactive) | GI50 (ACHN): > 100 µM (inactive) | GI50 (EKVX): > 100 µM (inactive) | GI50 (M14): > 100 µM (inactive) | GI50 (A498): > 100 µM (inactive) | GI50 (HOP-18): > 100 µM (inactive) | GI50 (SNB-19): > 100 µM (inactive) | GI50 (A549): > 100 µM (inactive) | GI50 (K562): > 100 µM (inactive) | GI50 (UACC-62): > 100 µM (inactive) | GI50 (HOP-92): > 100 µM (inactive) | GI50 (OVCAR-3): > 100 µM (inactive) | GI50 (SNB-75): > 100 µM (inactive) | GI50 (SN12C): > 100 µM (inactive) | GI50 (MOLT-4): > 100 µM (inactive) | GI50 (COLO 205): > 100 µM (inactive) | GI50 (SF-539): > 100 µM (inactive) | GI50 (RXF 393): 83 µM (inactive) | GI50 (NCI-H522): > 10 µM (inactive) | GI50 (786-0): > 100 µM (inactive) | GI50 (HT-29): > 100 µM (inactive) | GI50 (HL-60): > 100 µM (inactive) | GI50 (SK-MEL-2): > 100 µM (inactive) | GI50 (Malme-3M): > 100 µM (inactive) | GI50 (M19-MEL): > 100 µM (inactive) | GI50 (OVCAR-5): > 100 µM (inactive) | GI50 (OVCAR-8): > 100 µM (inactive) | GI50 (KM-20L2): > 100 µM (inactive) | GI50 (SW-620): > 100 µM (inactive) | GI50 (LXFL 529): > 100 µM (inactive) | GI50 (SK-OV-3): > 100 µM (inactive) | GI50 (SK-MEL-5): > 100 µM (inactive) | GI50 (RPMI-8226): > 100 µM (inactive) | GI50 (NCI-H23): > 100 µM (inactive) | GI50 (DLD-1): > 100 µM (inactive) | GI50 (TK-10): > 100 µM (inactive) | GI50 (U-251): > 100 µM (inactive) | GI50 (HCC 2998): > 100 µM (inactive) | GI50 (NCI-H460): > 100 µM (inactive) | GI50 (DMS-273): > 100 µM (inactive) | GI50 (HCT-15): > 100 µM | GI50 (SK-MEL-28): > 100 µM (inactive) | GI50 (SF-268): > 100 µM (inactive) | GI50 (UO-31): > 100 µM (inactive) | GI50 (UACC-257): > 100 µM (inactive) | GI50 (SF-295): > 100 µM (inactive)

CCOC(=O)C(=O)C=P(c1ccccc1)(c1ccccc1)c1ccccc1
GI50 (OVCAR-4): > 100 µM (inactive) | GI50 (IGROV-1): > 100 µM (inactive) | GI50 (RXF 631): > 100 µM (inactive) | GI50 (CCRF-CEM): > 100 µM (inactive) | GI50 (CAKI-1): > 100 µM (inactive) | GI50 (KM12): > 100 µM (inactive) | GI50 (LOX IMVI): > 100 µM (inactive) | GI50 (ACHN): > 100 µM (inactive) | GI50 (EKVX): > 100 µM (inactive) | GI50 (M14): > 100 µM (inactive) | GI50 (A498): > 100 µM (inactive) | GI50 (HOP-18): > 100 µM (inactive) | GI50 (SNB-19): > 100 µM (inactive) | GI50 (NCI-H226): > 100 µM (inactive) | GI50 (A549): > 100 µM (inactive) | GI50 (K562): > 100 µM (inactive) | GI50 (UACC-62): > 100 µM (inactive) | GI50 (HOP-92): > 100 µM (inactive) | GI50 (OVCAR-3): > 100 µM (inactive) | GI50 (SNB-75): > 100 µM (inactive) | GI50 (SN12C): > 100 µM (inactive) | GI50 (MOLT-4): > 100 µM (inactive) | GI50 (COLO 205): > 100 µM (inactive) | GI50 (SF-539): > 100 µM (inactive) | GI50 (RXF 393): > 100 µM (inactive) | GI50 (NCI-H522): > 100 µM (inactive) | GI50 (786-0): > 100 µM (inactive) | GI50 (HT-29): > 100 µM (inactive) | GI50 (HL-60): > 100 µM (inactive) | GI50 (SK-MEL-2): > 100 µM (inactive) | GI50 (Malme-3M): > 100 µM (inactive) | GI50 (HCT-116): > 100 µM (inactive) | GI50 (M19-MEL): > 100 µM (inactive) | GI50 (OVCAR-5): > 100 µM (inactive) | GI50 (OVCAR-8): > 100 µM (inactive) | GI50 (KM-20L2): > 100 µM (inactive) | GI50 (SW-620): > 100 µM (inactive) | GI50 (LXFL 529): > 100 µM (inactive) | GI50 (SK-OV-3): > 100 µM (inactive) | GI50 (HOP-62): > 100 µM (inactive) | GI50 (SK-MEL-5): > 100 µM (inactive) | GI50 (RPMI-8226): > 100 µM (inactive) | GI50 (SR): > 100 µM (inactive) | GI50 (NCI-H23): > 100 µM (inactive) | GI50 (DLD-1): > 100 µM (inactive) | GI50 (TK-10): > 100 µM (inactive) | GI50 (U-251): > 100 µM (inactive) | GI50 (HCC 2998): > 100 µM (inactive) | GI50 (NCI-H460): 34.6 µM (inactive) | GI50 (DMS-273): > 100 µM (inactive) | GI50 (DMS-114): > 100 µM (inactive) | GI50 (HCT-15): > 100 µM | GI50 (SK-MEL-28): > 100 µM (inactive) | GI50 (SNB-78): > 100 µM (inactive) | GI50 (SF-268): > 100 µM (inactive) | GI50 (UO-31): > 100 µM (inactive) | GI50 (UACC-257): > 100 µM (inactive) | GI50 (SF-295): > 100 µM (inactive)
